Measurements from EPA's ToxRefDB 2.

Experiments:
rat [1] = details: Multigenerational reproductive toxicity study, sprague dawley, Oral, Feed, dose end: 3 generation
rat [2] = details: Combined chronic toxicity/carcinogenicity, sprague dawley, Oral, Feed, dose end: 24 month, group: systemic
rat [3] = details: Combined chronic toxicity/carcinogenicity, sprague dawley, Oral, Feed, dose end: 24 month
rat [4] = details: Multigenerational reproductive toxicity study, sprague dawley, Oral, Feed, dose end: 2 generation
dog = details: Chronic toxicity; beagle; Oral; Gavage/Intubation; dose end: 12 month; group: systemic; systemic / clinical chemistry / alkaline phosphatase (alp/alk) / alkaline phosphatase (alp/alk) + systemic / clinical chemistry / urea …
mouse [5] = details: Carcinogenicity, cd1, Oral, Feed, dose end: 78 week, group: systemic
mouse [6] = details: Carcinogenicity, cd1, Oral, Feed, dose end: 22 month, group: systemic
rat [7] = details: Combined chronic toxicity/carcinogenicity, sprague dawley, Oral, Feed, dose end: 104 week, group: systemic
rat [8] = details: Multigenerational reproductive toxicity study, sprague dawley, Oral, Feed, dose end: 2 generation; remark: listed apart in the source
rat [9] = details: Prenatal developmental toxicity study, sprague dawley, Injection, Intramuscular, dose end: 13 GD
rat [10] = details: Prenatal developmental toxicity study; sprague dawley; Injection; Intramuscular; dose end: 14 GD; group: developmental; developmental / developmental malformation / mouth / jaw / cleft palate + developmental / developmental malformation / trunk / umbilical …
mouse [11] = details: Carcinogenicity, b6c3f1, Oral, Feed, dose end: 2 year, group: systemic
rat [12] = details: Subchronic oral toxicity in rodents, fischer, Feed, dose end: 14 week, group: systemic
rat [13] = details: Carcinogenicity, fischer, Oral, Feed, dose end: 2 year, group: systemic
mouse [14] = details: Subchronic oral toxicity in rodents, b6c3f1, Feed, dose end: 14 week, group: systemic, systemic / hematology / mean corpuscular (cell) volume (mcv) / mean corpuscular (cell) volume (mcv) + systemic / hematology / mean …
rat [15] = details: Combined chronic toxicity/carcinogenicity, fischer, Oral, Feed, dose end: 103 week, group: systemic
mouse [16] = details: Combined chronic toxicity/carcinogenicity; b6c3f1; Oral; Feed; dose end: 103 week; group: systemic; systemic / in life observation / body weight / body weight
[17] = group: offspring, systemic / in life observation / body weight / offspring (pup) weight
[18] = group: offspring, systemic / in life observation / body weight / offspring (pup) weight + developmental / offspring survival late / viability index / …
[19] = group: parental, systemic / in life observation / body weight / body weight + systemic / in life observation / body weight / body weight gain
[20] = group: reproductive, reproductive / offspring survival early / live fetuses / live fetuses
[21] = group: cholinesterase, cholinesterase / cholinesterase / cholinesterase / brain cholinesterase (che) + cholinesterase / cholinesterase / cholinesterase / …
[22] = group: systemic, systemic / pathology microscopic / nerve / cholesterol cleft(s) + systemic / pathology microscopic / nerve / mineralization + systemic / …
[23] = group: cholinesterase, cholinesterase / cholinesterase / cholinesterase / erythrocyte cholinesterase (che)
[24] = group: offspring, systemic / in life observation / body weight / offspring (pup) weight + developmental / offspring survival late / lactation index / …
[25] = group: parental, systemic / in life observation / body weight / body weight + systemic / in life observation / body weight / body weight gain + systemic / in…
[26] = group: reproductive, reproductive / offspring survival early / litter size / litter size
[27] = systemic / in life observation / body weight / body weight gain + systemic / pathology microscopic / ovary / cyst + systemic / in life …
[28] = systemic / in life observation / body weight / body weight + systemic / in life observation / body weight / body weight gain + systemic / in…
[29] = systemic / in life observation / body weight / body weight + systemic / in life observation / body weight / body weight gain
[30] = systemic / in life observation / body weight / body weight + systemic / in life observation / body weight / body weight gain + systemic / …
[31] = group: developmental, developmental / developmental malformation / mouth / jaw / cleft palate + developmental / developmental malformation / trunk / umbilical …
[32] = group: developmental, developmental / developmental malformation / mouth / jaw / cleft palate + systemic / in life observation / body weight / fetal weight
[33] = group: maternal, reproductive / offspring survival early / dead fetuses / dead fetuses
[34] = systemic / in life observation / body weight / body weight
[35] = systemic / in life observation / body weight / body weight + systemic / pathology microscopic / nose / pigmentation
[36] = systemic / clinical chemistry / alanine aminotransferase (alt/sgpt) / alanine aminotransferase (alt/sgpt) + systemic / clinical chemistry / …
[37] = systemic / clinical chemistry / bile acids / bile acids + systemic / in life observation / body weight / body weight + systemic / in life …
[38] = systemic / in life observation / body weight / body weight + systemic / in life observation / food consumption / food consumption
[39] = systemic / pathology microscopic / pancreas / adenoma/carcinoma combined

Compound `CCSC(=O)N(CC)C1CCCCC1` [Cycloate] has an LEL (rat [1]; [17]) of 24 mg/kg/day, an LOAEL (rat [1]; [17]) of 24 mg/kg/day and an NEL (rat [1]; [18]) of 8 mg/kg/day. The NOAEL (rat [1]; [18]) was 8 mg/kg/day, the LEL (rat [1]; [19]) was 24 mg/kg/day and the LOAEL (rat [1]; [19]) was 24 mg/kg/day. For the same compound, the NEL (rat [1]; [19]) was 8 mg/kg/day, the NOAEL (rat [1]; [19]) was 8 mg/kg/day and the LEL (rat [1]; [20]) was 72 mg/kg/day. It also gave an LOAEL (rat [1]; [20]) of over 72 mg/kg/day, an NEL (rat [1]; [20]) of 24 mg/kg/day and an NOAEL (rat [1]; [20]) of at least 72 mg/kg/day. The LEL (rat [2]; systemic / organ weight / heart / absolute) was 2.4 mg/kg/day, the NEL (rat [2]; systemic / organ weight / heart / absolute + systemic / pathology microscopic / skeletal muscle / atrophy + systemic / pathology microscopic…) was 0.4 mg/kg/day and the LOAEL (rat [2]; systemic / pathology microscopic / spinal cord / atrophy + systemic / pathology microscopic / spinal cord / degeneration) was 3.1 mg/kg/day. It also gave an NOAEL (rat [2]; systemic / pathology microscopic / spinal cord / atrophy + systemic / pathology microscopic / spinal cord / degeneration + systemic / in …) of 0.5 mg/kg/day, an LEL (rat [3]; [21]) of 8 mg/kg/day and an LOAEL (rat [3]; [21]) of 8 mg/kg/day. For the same compound, the NEL (rat [3]; [21]) was under 8 mg/kg/day, the NOAEL (rat [3]; [21]) was under 8 mg/kg/day and the LEL (rat [3]; [22]) was 8 mg/kg/day. It also gave an LOAEL (rat [3]; [22]) of 8 mg/kg/day, an NEL (rat [3]; [22]) of under 8 mg/kg/day and an NOAEL (rat [3]; [22]) of under 8 mg/kg/day. For the same compound, the LEL (rat [4]; [23]) was 50 mg/kg/day, the LOAEL (rat [4]; [23]) was over 50 mg/kg/day and the NEL (rat [4]; [23]) was 20 mg/kg/day. The NOAEL (rat [4]; [23]) was at least 50 mg/kg/day, the LEL (rat [4]; [17]) was 20 mg/kg/day and the LOAEL (rat [4]; [17]) was 20 mg/kg/day. The NEL (rat [4]; [24]) was 2.5 mg/kg/day, the NOAEL (rat [4]; [24]) was 2.5 mg/kg/day and the LEL (rat [4]; [25]) was 20 mg/kg/day. For the same compound, the LOAEL (rat [4]; [25]) was 20 mg/kg/day, the NEL (rat [4]; [25]) was 2.5 mg/kg/day and the NOAEL (rat [4]; [25]) was 2.5 mg/kg/day. It also gave an LEL (rat [4]; [26]) of 50 mg/kg/day, an LOAEL (rat [4]; [26]) of 50 mg/kg/day and an NEL (rat [4]; [26]) of 20 mg/kg/day. For the same compound, the NOAEL (rat [4]; [26]) was 20 mg/kg/day, the LEL (dog) was 50 mg/kg/day and the LOAEL (dog) was 50 mg/kg/day. The NEL (dog) was 0.5 mg/kg/day, the NOAEL (dog) was 0.5 mg/kg/day and the LOAEL (mouse [5]; systemic / in life observation / body weight / body weight gain + systemic / pathology microscopic / ovary / cyst) was 167 mg/kg/day. For the same compound, the LEL (mouse [5]; [27]) was 167 mg/kg/day, the NEL (mouse [5]; [27]) was 49 mg/kg/day and the NOAEL (mouse [5]; [27]) was 49 mg/kg/day.
`COc1nc(NC(C)C)nc(NC(C)C)n1` [Prometon] was tested, and the LOAEL (mouse [6]; [28]) was 737 mg/kg/day, the NEL (mouse [6]; [28]) was 1.7 mg/kg/day and the NOAEL (mouse [6]; [28]) was 70 mg/kg/day. It also gave an LEL (mouse [6]; systemic / pathology microscopic / spleen / depletion) of 70 mg/kg/day, an LEL (rat [7]; [29]) of 23.3 mg/kg/day and an LOAEL (rat [7]; [29]) of 23.3 mg/kg/day. The NEL (rat [7]; [30]) was 0.89 mg/kg/day, the NOAEL (rat [7]; [30]) was 0.89 mg/kg/day and the LEL (rat [8]; [17]) was 35.1 mg/kg/day. For the same compound, the LOAEL (rat [8]; [17]) was 35.1 mg/kg/day, the NEL (rat [8]; [17]) was 1.45 mg/kg/day and the NOAEL (rat [8]; [17]) was 1.45 mg/kg/day. The LEL (rat [8]; [19]) was 35.1 mg/kg/day, the LOAEL (rat [8]; [19]) was 35.1 mg/kg/day and the NEL (rat [8]; [19]) was 1.45 mg/kg/day. The NOAEL (rat [8]; [19]) was 1.45 mg/kg/day.
`CC1(C)O[C@@H]2C[C@H]3[C@@H]4CCC5=CC(=O)C=C[C@]5(C)[C@@]4(F)[C@@H](O)C[C@]3(C)[C@]2(C(=O)CO)O1` [Triamcinolone acetonide] was tested, and the LOAEL (rat [9]; [31]) was over 5 mg/kg/day, the NOAEL (rat [9]; [31]) was at least 5 mg/kg/day and the LEL (rat [9]; [32]) was 0.5 mg/kg/day. For the same compound, the NEL (rat [9]; [32]) was under 0.5 mg/kg/day, the LEL (rat [9]; [33]) was 2.5 mg/kg/day and the LOAEL (rat [9]; [33]) was over 5 mg/kg/day. The NEL (rat [9]; [33]) was 0.5 mg/kg/day, the NOAEL (rat [9]; [33]) was at least 5 mg/kg/day and the LEL (rat [10]) was 0.5 mg/kg/day. The LOAEL (rat [10]) was over 0.5 mg/kg/day, the NEL (rat [10]) was under 0.5 mg/kg/day and the NOAEL (rat [10]) was at least 0.5 mg/kg/day.
`O=C/C=C/c1ccccc1` [(2E)-3-Phenylprop-2-enal] was tested, and the LOAEL (mouse [11]; [34]) was 270 mg/kg/day, the LEL (mouse [11]; [35]) was 270 mg/kg/day and the NEL (mouse [11]; [35]) was 125 mg/kg/day. The NOAEL (mouse [11]; [35]) was 125 mg/kg/day, the LOAEL (rat [12]; [36]) was over 3100 mg/kg/day and the NOAEL (rat [12]; [36]) was at least 3100 mg/kg/day. For the same compound, the LEL (rat [12]; [37]) was 275 mg/kg/day, the NEL (rat [12]; [37]) was under 275 mg/kg/day and the LOAEL (rat [13]; [34]) was 200 mg/kg/day. For the same compound, the LEL (rat [13]; [38]) was 100 mg/kg/day, the NEL (rat [13]; [38]) was 50 mg/kg/day and the NOAEL (rat [13]; [38]) was 100 mg/kg/day. For the same compound, the LEL (mouse [14]) was 1320 mg/kg/day, the LOAEL (mouse [14]) was over 5200 mg/kg/day and the NEL (mouse [14]) was 650 mg/kg/day. For the same compound, the NOAEL (mouse [14]) was at least 5200 mg/kg/day.
Compound `CN(C)[C@@H]1C(=O)C(C(N)=O)=C(O)[C@@]2(O)C(=O)C3=C(O)c4c(O)cccc4[C@@](C)(O)[C@H]3C[C@@H]12.Cl` [Tetracycline hydrochloride] has an LOAEL (rat [15]; systemic / pathology microscopic / liver / clear cell focus + systemic / pathology microscopic / liver / cytoplasmic alteration) of 910 mg/kg/day, an NOAEL (rat [15]; systemic / pathology microscopic / liver / clear cell focus + systemic / pathology microscopic / liver / cytoplasmic alteration + systemic…) of 440 mg/kg/day and an LEL (rat [15]; [39]) of 440 mg/kg/day. It also gave an NEL (rat [15]; [39]) of under 440 mg/kg/day, an LEL (mouse [16]) of 1500 mg/kg/day and an LOAEL (mouse [16]) of 1500 mg/kg/day. The NEL (mouse [16]) was under 1500 mg/kg/day and the NOAEL (mouse [16]) was under 1500 mg/kg/day.
